{"source": "patent US11512085B2", "about": "“Heteroaryl compound having drug activity” (SHANGHAI DUDE MEDICAL TECHNOLOGY CO., LTD, priority 2017, dated 2022)", "key": {"Lck": {"molecular_target": "Lck (Homo sapiens, UniProt P06239)", "sequence (P06239 whole entry)": "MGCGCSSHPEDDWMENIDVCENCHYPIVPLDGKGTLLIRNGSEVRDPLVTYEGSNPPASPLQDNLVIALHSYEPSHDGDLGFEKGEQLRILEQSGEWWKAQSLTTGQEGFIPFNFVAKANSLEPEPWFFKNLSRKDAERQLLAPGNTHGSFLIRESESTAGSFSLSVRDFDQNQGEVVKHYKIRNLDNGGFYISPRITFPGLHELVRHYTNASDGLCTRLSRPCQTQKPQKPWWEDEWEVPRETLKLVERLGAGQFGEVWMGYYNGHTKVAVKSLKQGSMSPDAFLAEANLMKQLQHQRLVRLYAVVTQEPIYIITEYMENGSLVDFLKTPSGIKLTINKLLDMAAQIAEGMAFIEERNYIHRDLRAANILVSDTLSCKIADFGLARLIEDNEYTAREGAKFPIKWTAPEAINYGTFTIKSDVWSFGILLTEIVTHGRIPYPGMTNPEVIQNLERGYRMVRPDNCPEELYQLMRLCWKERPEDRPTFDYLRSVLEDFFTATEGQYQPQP", "assay": "Btk selectivity over Lck (same kinase method, Btk replaced)", "type": "biochemical", "settings": "ratio of IC50 values", "experimental": "Other kinases (e.g., inhibitory activity of Lck and LynA is determined by replacing the Btk with various kinases and performing operations the same as that in the above method)."}, "[1]": {"assay": "Human liver microsome stability test", "type": "in vitro ADME", "experimental": "Preparation of Buffer Solution:\n1. 100 mM potassium phosphate buffer solution, pH of 7.4\nPreparation of Test Compound Solution:\n1. A test compound solution (10 mM, 5 μL) was diluted with a methanol solution (495 μL), and a 100 μM solution was prepared;\n2. Preparation of a working solution: the above solution (50 μL) was diluted with the potassium phosphate buffer solution (450 μL, 100 mM) so as to obtain diluents (10 μM).\nNADPH Regeneration System (Final Concentration 1 Unit/mL of Isocitrate Dehydrogenase):\n1. beta-NADP, supplier: sigma Cat. No. N0505\n3. isocitrate dehydrogenase, supplier: sigma Cat. No. 12002\nCold acetonitrile containing 100 ng/mL of tolbutamide and 100 ng/mL of labetalol serves as an internal standard\n1. a 10 μL/well of working solution was added into plates (T0, T5, T10, T20, T30, T60, NCF60) beyond the blank;\n2. a 80 μL/well of microsome solution was added, and incubation was performed at 37° C. for 10 min;\n3. a 10 μL of 100 mM phosphate buffer solution was added into each well of an NCF60 plate, the plate was placed in a warm bath at 37° C., and timing started;\n4. a 10 μL/well of NADPH regeneration system was added after preheating, and a reaction started;\n5. incubation was performed at 37° C., and timing started\n6. a 300 μL/well of stop solution was added (4° C., containing 100 ng/mL of tolbutamide and 100 ng/mL of labetalol) to end the reaction;\n7. the plate was shaken for 10 min;\n8. centrifugation was performed at 4° C. at a rotation speed of 4000 rpm; and\n9. sample LC/MS/MS detection was performed.\nData Analysis Use Equation of First Order Kinetics to Calculate t½ and Clint(Mic): […]\nequation of first order kinetics: […]"}, "T cells": {"system": "T cells", "assay": "T cell activation (CD3/CD28 dynabeads, CD69 staining)", "type": "cell-based, Human", "settings": "concentration of 10 uM", "experimental": "Biological Embodiment 3: Influences of In-Vitro Test Compounds on PBMC/B/T Cell Activation\n4.3 Isolation of B Cells and T Cells\nCell Isolation Programs Shall Refer to […] Kits\n4.4.3 Activation of T Cells\nThe co-culture system is as follows:\nAntibody Staining and Data Analysis\nAntibody staining was performed within 24 hours […] according to a standard method.\n4.5.2 Activation of T Cells\nFITC Mouse Anti-Human CD4\nPerCP-Cy™5.5 Mouse Anti-Human CD8\nLIVE/DEAD Fixable Violet Dead Cell Stain Kit"}, "p-Btk/t-Btk": {"system": "p-Btk/t-Btk", "assay": "Western blotting of p-Btk/t-Btk in anti-IgG stimulated DOHH2 cells", "type": "cell-based", "settings": "DOHH2 cells, 5, 100, 2000 nM, 1 h, anti-IgG stimulation", "experimental": "Biological Embodiment 4: Analysis of Influences of Test Compounds on p-Btk/t-Btk, p-PLCγ/t-PLCγ and p-Erk/t-Erk Expression Levels of DOHH2 Cells by Virtue of Western Blotting\n1) DOHH2 cells on a logarithmic phase were collected;\n2) a cell concentration was adjusted to a needed concentration;\n3) 2 ml of cell suspension was added into a 6-well plate for performing culture, three different concentrations, that is, 5 nM, 100 nM and 2000 nM, of test samples were respectively set, and each concentration was repeated once;\n4) test samples were added into plate wells, and DMSO served as control, wherein a final concentration of the DMSO was 0.1%;\n5) culture was performed for 1 h; and […]\n6. protein extraction and quantification […]\n5) a protein concentration was determined by using Pierce™ BCA Protein Assay Kit; and\n6) according to BCA protein quantification results, all samples were diluted to the same final concentration by adding 4×LDS sample buffer and 10× sample reducing agent into the RIPA buffer solution, and the solution was heated at 100° C. for 10 min. […]\n10) chemiluminiscence was detected by Tanon 5200 multi.\n7. Quantification of strip intensity\nIntensity of each strip was quantified by using Image quant densitometry software. […]"}}}
{"smiles": "C=CC(=O)NN1CCCC(n2nc(-c3ccc(Oc4ccccc4)cc3)c3c(N)ncnc32)C1", "note": "(centres unmarked) [Embodiment 6, N-(3-(4-amino-3-(4-phenoxyphenyl)-1H-pyrazolo[3,4-D]pyrimidine-1-yl)-1-piperidyl)-acrylamide]", "values": [{"measurement": "Lck[IC50]/Btk[IC50]", "setting": "Lck", "result": 285}, {"measurement": "Remaining (*NCF = 60 min)", "setting": "[1]; HLM 0.5, 60 min, no co-factor", "result": 105.9, "unit": "%"}, {"measurement": "Remaining (T = 60 min)", "setting": "[1]; HLM 0.5, 60 min with NADPH regenerating system", "result": 0.2, "unit": "%"}, {"measurement": "half-life at 1 µM", "setting": "[1]; human, liver microsomes, pH 7.4, HLM 0.5 (0.5 mg protein/mL)", "result": 4.3, "unit": "min"}, {"measurement": "microsomal CLint at 1 µM", "setting": "[1]; human, liver microsomes, pH 7.4, HLM 0.5, read-out: CLint(mic)", "result": 325, "unit": "µL/min/mg"}, {"measurement": "CLint scaled at 1 µM", "setting": "[1]; human, liver microsomes, pH 7.4, HLM 0.5, scaled from CLint(mic)", "result": 292, "unit": "mL/min/kg"}, {"measurement": "T cell activity inhibition effect", "setting": "T cells", "result": "T cell activity inhibition effect"}, {"measurement": "relative level of p-Btk/t-Btk", "setting": "p-Btk/t-Btk", "result": "obviously decreased"}]}
